IC50 data for 24 molecules are collected here from US20230014445A1, “ALLOSTERIC CHROMENONE INHIBITORS OF PHOSPHOINOSITIDE 3-KINASE (PI3K) FOR THE TREATMENT OF DISEASE” (Petra Pharma Corporation, priority 2021, published 2023).

Assay [1] concerns the target T1, human full length PIK3KA Wild-type (p110α/p85α complex) (Homo sapiens, UniProt P42336).
T1 construct: Recombinant, catalytically active human full length PIK3KA Wild-type and H1047R mutant were purchased; 6xHis (N); purchased EMD Millipore Sigma 14-602M
The assay can be described thus: PI3K-Alpha Kinase (PIK3CA) biochemical activity, wild-type (ADP-Glo). The following applies: 20 uM ATP. In outline:
(§1)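 ADP formation, measured by ADP-Glo luminescence after reaction to about 10% ATP conversion at 27° C., gives 10-point 4-parameter IC50 curves normalized to no-enzyme and DMSO controls. Lipid substrate was PIP2diC8 or Soy PI at 50 uM, with 20 uM ATP. WT or H1047R p110α/p85α complex (1-5 nM) was preincubated 1 h with compound.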
(ADP-Glo first removes unused ATP, then detects ADP through luciferase.)

For assay [2], the target named is T2, human full length PIK3KA H1047R mutant (p110α/p85α complex) (Homo sapiens, UniProt P42336, H1047R).
T2 construct: Recombinant, catalytically active human full length PIK3KA Wild-type and H1047R mutant were purchased; 6xHis (N); purchased EMD Millipore Sigma 14-792M
The assay can be described thus: PI3K-Alpha Kinase (PIK3CA) biochemical activity, H1047R mutant (ADP-Glo). The following applies: 20 uM ATP. In outline:
as §1

T2 sequence (P42336 whole entry H1047R): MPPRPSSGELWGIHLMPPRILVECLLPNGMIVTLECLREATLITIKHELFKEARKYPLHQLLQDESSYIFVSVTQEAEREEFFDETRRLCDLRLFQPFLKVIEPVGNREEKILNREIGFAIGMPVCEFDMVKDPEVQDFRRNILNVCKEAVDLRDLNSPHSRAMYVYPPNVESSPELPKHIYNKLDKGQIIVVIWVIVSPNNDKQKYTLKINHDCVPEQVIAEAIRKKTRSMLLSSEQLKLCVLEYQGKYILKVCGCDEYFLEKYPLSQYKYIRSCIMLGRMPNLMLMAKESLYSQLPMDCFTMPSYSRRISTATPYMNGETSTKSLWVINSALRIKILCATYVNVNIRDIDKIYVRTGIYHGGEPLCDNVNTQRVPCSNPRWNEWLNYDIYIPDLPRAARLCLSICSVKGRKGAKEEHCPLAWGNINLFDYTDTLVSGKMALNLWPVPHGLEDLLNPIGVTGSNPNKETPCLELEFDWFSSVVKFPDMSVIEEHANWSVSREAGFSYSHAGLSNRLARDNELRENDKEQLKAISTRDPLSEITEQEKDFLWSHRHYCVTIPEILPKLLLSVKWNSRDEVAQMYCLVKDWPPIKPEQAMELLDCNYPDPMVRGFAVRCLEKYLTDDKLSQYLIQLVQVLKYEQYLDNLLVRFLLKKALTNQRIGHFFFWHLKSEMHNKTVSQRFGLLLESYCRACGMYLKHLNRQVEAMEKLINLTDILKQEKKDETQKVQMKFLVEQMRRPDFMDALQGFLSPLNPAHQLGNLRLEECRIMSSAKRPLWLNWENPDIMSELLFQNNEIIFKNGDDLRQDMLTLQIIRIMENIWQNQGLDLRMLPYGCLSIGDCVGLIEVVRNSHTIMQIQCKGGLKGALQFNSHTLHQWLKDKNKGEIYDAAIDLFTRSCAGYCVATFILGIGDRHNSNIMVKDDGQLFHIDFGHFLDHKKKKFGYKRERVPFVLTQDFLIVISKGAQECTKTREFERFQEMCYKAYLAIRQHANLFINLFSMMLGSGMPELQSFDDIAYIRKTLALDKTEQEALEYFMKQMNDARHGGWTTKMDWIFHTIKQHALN
T2 sequence (P27986 whole entry partner): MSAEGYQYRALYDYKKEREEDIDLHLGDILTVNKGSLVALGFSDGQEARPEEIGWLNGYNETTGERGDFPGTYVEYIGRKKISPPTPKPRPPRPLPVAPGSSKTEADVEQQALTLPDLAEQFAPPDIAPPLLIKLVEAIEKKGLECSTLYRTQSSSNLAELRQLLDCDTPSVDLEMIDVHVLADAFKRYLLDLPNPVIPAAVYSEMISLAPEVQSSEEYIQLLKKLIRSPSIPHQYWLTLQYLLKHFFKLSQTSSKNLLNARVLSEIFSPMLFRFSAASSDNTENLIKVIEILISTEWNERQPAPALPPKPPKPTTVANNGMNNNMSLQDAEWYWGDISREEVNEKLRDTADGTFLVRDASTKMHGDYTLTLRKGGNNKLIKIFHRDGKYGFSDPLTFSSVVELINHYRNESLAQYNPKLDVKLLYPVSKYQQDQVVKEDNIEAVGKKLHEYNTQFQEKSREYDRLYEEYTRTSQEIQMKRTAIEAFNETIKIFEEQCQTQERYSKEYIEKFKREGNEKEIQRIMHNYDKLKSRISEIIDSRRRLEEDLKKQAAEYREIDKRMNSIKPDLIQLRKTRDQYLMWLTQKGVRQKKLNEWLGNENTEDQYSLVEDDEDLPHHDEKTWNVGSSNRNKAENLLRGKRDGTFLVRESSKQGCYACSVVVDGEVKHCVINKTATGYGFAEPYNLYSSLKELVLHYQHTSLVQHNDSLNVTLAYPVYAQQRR

What is called IC50 is the point on the concentration scale where inhibition reaches its midpoint. For the molecule `Cc1cc(C(C)Nc2ccccc2C(=O)O)c2oc(-c3cnc(C4CC4)nc3)cc(=O)c2c1` (single isomer, unassigned; isomer 2) [Example 26, 2-[1-[2-(2-Cyclopropylpyrimidin-5-yl)-6-methyl-4-oxo-chromen-8-yl]ethylamino]benzoic acid, Isomer 2], the IC50 is 5000 to 10000 nM in assay [1] (Soy PI lipid substrate) and less than 500 nM in assay [2] (Soy PI lipid substrate).

Turning to `Cc1cc(C(C)Nc2ccccc2C(=O)O)c2oc(-c3ccc(OC(C)C)nc3)cc(=O)c2c1` (single isomer, unassigned; isomer 2) [Example 31, 2-[1-[2-(6-Isopropoxy-3-pyridyl)-6-methyl-4-oxo-chromen-8-yl]ethylamino]benzoic acid, Isomer 2], the concentration for half-maximal inhibition (IC50) was 1000 to 5000 nM in assay [1] (PIP2diC8 lipid substrate) and less than 500 nM in assay [2] (PIP2diC8 lipid substrate).

As for `Cc1cc(C(C)Nc2ccccc2C(=O)O)c2oc(-c3ccc(C(F)(F)F)nc3)cc(=O)c2c1` (single isomer, unassigned; isomer 2) [Example 38, 2-[1-[6-Methyl-4-oxo-2-[6-(trifluoromethyl)-3-pyridyl]chromen-8-yl]ethylamino]benzoic acid, Isomer 2], the 50% inhibitory concentration (IC50) is greater than 10000 nM in assay [1] (Soy PI lipid substrate) and less than 500 nM in assay [2] (Soy PI lipid substrate).

Consider `Cc1cc(C(C)Nc2ccccc2C(=O)O)c2oc(-c3ccc(S(C)(=O)=O)nc3)cc(=O)c2c1` (single isomer, unassigned; isomer 2) [Example 40, 2-[1-[6-Methyl-2-(6-methylsulfonyl-3-pyridyl)-4-oxo-chromen-8-yl]ethylamino]benzoic acid, Isomer 2], for which the IC50 is greater than 10000 nM in assay [1] (Soy PI lipid substrate) and less than 500 nM in assay [2] (Soy PI lipid substrate).

On to `Cc1cc(C(C)Nc2ccccc2C(=O)O)c2oc(-c3cnn(-c4cccnc4)c3)cc(=O)c2c1` (single isomer, unassigned; isomer 2) [Example 50, 2-[1-[6-Methyl-4-oxo-2-[1-(3-pyridyl)pyrazol-4-yl]chromen-8-yl]ethylamino]benzoic acid, Isomer 2], for which the IC50 in assay [1] (Soy PI lipid substrate) is 1000 to 5000 nM; in assay [2] (Soy PI lipid substrate), less than 500 nM.

Consider `COC(=O)c1ccccc1NC(C)c1cc(C)cc2c(=O)cc(-c3c[nH]c(=O)cn3)oc12` (single isomer, unassigned; isomer 2) [Example 56, Methyl 2-[1-[6-methyl-4-oxo-2-(6-oxo-1H-pyrazin-3-yl)chromen-8-yl]ethylamino]benzoate, Isomer 2], for which the half-inhibitory concentration (IC50) in assay [1] (Soy PI lipid substrate) is greater than 10000 nM; in assay [2] (Soy PI lipid substrate), 1000 to 5000 nM.

Consider `Cc1cc(C(C)Nc2ccccc2C(=O)O)c2oc(-c3cccc(C(F)F)n3)cc(=O)c2c1` (single isomer, unassigned; isomer 2) [Example 71, 2-[1-[2-[6-(Difluoromethyl)-2-pyridyl]-6-methyl-4-oxo-chromen-8-yl]ethylamino]benzoic acid, Isomer 2], for which the IC50 in assay [1] (Soy PI lipid substrate) was 5000 to 10000 nM; in assay [2] (Soy PI lipid substrate), less than 500 nM.

For the molecule `Cc1cc(C(C)Nc2ccccc2C(=O)O)c2oc(-c3nnc(-c4ccc(C#N)cc4)o3)cc(=O)c2c1` (single isomer, unassigned; isomer 2) [Example 90, 2-[1-[2-[5-(4-Cyanophenyl)-1,3,4-oxadiazol-2-yl]-6-methyl-4-oxo-chromen-8-yl]ethylamino]benzoic acid, Isomer 2], the results for the IC50 in assay [1] (Soy PI lipid substrate) and in assay [2] (Soy PI lipid substrate) were greater than 10000 nM and less than 500 nM, respectively.

Turning to `COc1cccc(-n2cc(-c3cc(=O)c4cc(C)cc(C(C)Nc5ccccc5C(=O)O)c4o3)nn2)c1` (single isomer, unassigned; isomer 2) [Example 98, 2-[1-2-[1-(3-Methoxyphenyl)triazol-4-yl]-6-methyl-4-oxo-chromen-8-yl]ethylamino]benzoic acid, Isomer 2], the half-inhibitory concentration (IC50) was 1000 to 5000 nM in assay [1] (Soy PI lipid substrate) and less than 500 nM in assay [2] (Soy PI lipid substrate).

On to `Cc1cc(C(C)Nc2ccccc2C(=O)O)c2oc(-c3ccc(OC(C)C)nc3)cc(=O)c2c1` (stereo not drawn) [Example 1, 2-[1-[2-(6-Isopropoxy-3-pyridyl)-6-methyl-4-oxo-chromen-8-yl]ethylamino]benzoic acid 2,2,2-trifluoroacetic acid], for which the IC50 is greater than 10000 nM in assay [1] (Soy PI lipid substrate) and 500 to 1000 nM in assay [2] (Soy PI lipid substrate).

On to `COc1ncc(-c2cc(=O)c3cc(C)cc(C(C)Nc4ccccc4C(=O)O)c3o2)cn1` (stereo not drawn) [Example 2, 2-[1-[2-(2-Methoxypyrimidin-5-yl)-6-methyl-4-oxo-chromen-8-yl]ethylamino]benzoic acid 2,2,2-trifluoroacetic acid], for which the 50% inhibitory concentration (IC50) in assay [1] (Soy PI lipid substrate) was 5000 to 10000 nM; in assay [2] (Soy PI lipid substrate), less than 500 nM.

As to `Cc1cc(C(C)Nc2ccccc2C(=O)O)c2oc(-c3cnc(OC(C)C)nc3)cc(=O)c2c1` (stereo not drawn) [Example 6, 2-[1-[2-(2-Isopropoxypyrimidin-5-yl)-6-methyl-4-oxo-chromen-8-yl]ethylamino]benzoic acid 2,2,2-trifluoroacetic acid], the IC50 in assay [1] (Soy PI lipid substrate) was greater than 10000 nM; in assay [2] (Soy PI lipid substrate), less than 500 nM.

For the molecule `Cc1cc(C(C)Nc2ccccc2C(=O)O)c2oc(-c3ccc(S(C)(=O)=O)nc3)cc(=O)c2c1` (stereo not drawn) [Example 7, 2-[1-[6-Methyl-2-(6-methylsulfonyl-3-pyridyl)-4-oxo-chromen-8-yl]ethylamino]benzoic acid 2,2,2-trifluoroacetic acid], the IC50 in assay [1] (Soy PI lipid substrate) was greater than 10000 nM; in assay [2] (Soy PI lipid substrate), less than 500 nM.

On to `Cc1cc(C(C)Nc2ccccc2C(=O)O)c2oc(-c3ccc(C(F)(F)F)nc3)cc(=O)c2c1` (stereo not drawn) [Example 8, 2-[1-[6-Methyl-4-oxo-2-[6-(trifluoromethyl)-3-pyridyl]chromen-8-yl]ethylamino]benzoic acid 2,2,2-trifluoroacetic acid], for which the IC50 in assay [1] (Soy PI lipid substrate) was 5000 to 10000 nM; in assay [2] (Soy PI lipid substrate), less than 500 nM.

In the case of `Cc1cc(C(C)Nc2ccccc2C(=O)O)c2oc(-c3ccc(F)nc3)cc(=O)c2c1` (stereo not drawn) [Example 9, 2-[1-[2-(6-Fluoro-3-pyridyl)-6-methyl-4-oxo-chromen-8-yl]ethylamino]benzoic acid 2,2,2-trifluoroacetic acid], the IC50 in assay [1] (Soy PI lipid substrate) is 5000 to 10000 nM; in assay [2] (Soy PI lipid substrate), less than 500 nM.

With `Cc1cc(C(C)Nc2ccccc2C(=O)O)c2oc(-c3cc(C#N)ccn3)cc(=O)c2c1` (stereo not drawn) [Example 10, 2-[1-[2-(4-Cyano-2-pyridyl)-6-methyl-4-oxo-chromen-8-yl]ethylamino]benzoic acid 2,2,2-trifluoroacetic acid], the IC50 was in the range of 1000 to 5000 nM in assay [1] (Soy PI lipid substrate) and 500 to 1000 nM in assay [2] (Soy PI lipid substrate).

On to `COc1cccc(-c2cc(=O)c3cc(C)cc(C(C)Nc4ccccc4C(=O)O)c3o2)n1` (stereo not drawn) [Example 11, 2-[1-[2-(6-Methoxy-2-pyridyl)-6-methyl-4-oxo-chromen-8-yl]ethylamino]benzoic acid 2,2,2-trifluoroacetic acid], for which the results for the half-inhibitory concentration (IC50) in assay [1] (Soy PI lipid substrate) and in assay [2] (Soy PI lipid substrate) were 500 to 1000 nM and less than 500 nM, respectively.

`COc1ccc(-c2cc(=O)c3cc(C)cc(C(C)Nc4ccccc4C(=O)O)c3o2)cn1` (stereo not drawn) [Example 12, 2-[1-[2-(6-Methoxy-3-pyridyl)-6-methyl-4-oxo-chromen-8-yl]ethylamino]benzoic acid 2,2,2-trifluoroacetic acid]: the 50% inhibitory concentration (IC50) in assay [1] (Soy PI lipid substrate) was 1000 to 5000 nM; in assay [2] (Soy PI lipid substrate), less than 500 nM.

Consider `Cc1cc(C(C)Nc2ccccc2C(=O)O)c2oc(-c3cnc(C)nc3)cc(=O)c2c1` (stereo not drawn) [Example 13, 2-[1-[6-Methyl-2-(2-methylpyrimidin-5-yl)-4-oxo-chromen-8-yl]ethylamino]benzoic acid 2,2,2-trifluoroacetic acid], for which the figures for the concentration for half-maximal inhibition (IC50) in assay [1] (Soy PI lipid substrate) and in assay [2] (Soy PI lipid substrate) were greater than 10000 nM and 500 to 1000 nM, respectively.

Turning to `Cc1cc(C(C)Nc2ccccc2C(=O)O)c2oc(-c3ccc(F)cn3)cc(=O)c2c1` (stereo not drawn) [Example 23, 2-[1-[2-(5-Fluoro-2-pyridyl)-6-methyl-4-oxo-chromen-8-yl]ethylamino]benzoic acid 2,2,2-trifluoroacetic acid], the 50% inhibitory concentration (IC50) was 5000 to 10000 nM in assay [1] (Soy PI lipid substrate) and less than 500 nM in assay [2] (Soy PI lipid substrate).

Take `Cc1cc(C(C)Nc2ccccc2C(=O)O)c2oc(-c3cnn(C)c3)cc(=O)c2c1` (stereo not drawn) [Example 47, 2-[1-[6-Methyl-2-(1-methylpyrazol-4-yl)-4-oxo-chromen-8-yl]ethylamino]benzoic acid]: the IC50 in assay [1] (PIP2diC8 lipid substrate) was 1000 to 5000 nM; in assay [2] (PIP2diC8 lipid substrate), 500 to 1000 nM.

For the molecule `Cc1cc(C(C)Nc2ccccc2C(=O)O)c2oc(-c3cnn(-c4cccnc4)c3)cc(=O)c2c1` (stereo not drawn) [Example 48, 2-[1-[6-Methyl-4-oxo-2-[1-(3-pyridyl)pyrazol-4-yl]chromen-8-yl]ethylamino]benzoic acid 2,2,2-trifluoroacetic acid], the IC50 in assay [1] (Soy PI lipid substrate) is 5000 to 10000 nM; in assay [2] (Soy PI lipid substrate), less than 500 nM.

With `Cc1cc(C(C)Nc2cccc(F)c2C(=O)O)c2oc(-c3ccccn3)cc(=O)c2c1` (stereo not drawn) [Example 100, 2-Fluoro-6-[1-[6-methyl-4-oxo-2-(2-pyridyl)chromen-8-yl]ethylamino]benzoic acid 2,2,2-trifluoroacetic acid], the 50% inhibitory concentration (IC50) in assay [1] (Soy PI lipid substrate) is greater than 10000 nM; in assay [2] (Soy PI lipid substrate) it was less than 500 nM.

Take `Cc1cc(C(C)Nc2cccc(F)c2C(=O)O)c2oc(-c3cnn(-c4ccc(C#N)cc4)c3)cc(=O)c2c1` (stereo not drawn) [Example 101, 2-[1-[2-[1-(4-Cyanophenyl)pyrazol-4-yl]-6-methyl-4-oxo-chromen-8-yl]ethylamino]-6-fluoro-benzoic acid 2,2,2-trifluoroacetic acid]: the IC50 in assay [1] (Soy PI lipid substrate) is 500 to 1000 nM; in assay [2] (Soy PI lipid substrate), less than 500 nM.
